One series deals with human tongue. The note with it: cited from earlier work. As to the method: Sensor design was driven by physiological insights on taste. Structurally diverse molecules are bitter tasting, including polyphenols, flavonoids, or methylxanthines (caffeine)[3]. The main function of sensing bitter taste is linked to the detection of poisonous substances. This would readily explain why bitter taste is so sensitively recognized with some molecules being recognized in the nanomolar range[4]. The human tongue senses bitterness of denatonium down to concentrations of 10 nM with consumer products containing as little as 30–100 ppm[5]. […] To date, it is the mo s t bitter substance known and th e b itter taste can be detected at concentrations of 10 ppb 2. Because of its lower toxicity as co mpar ed to the b itter molecules brucine 3 or str ychnin e it is wid el y used as an additive for denaturing alcohol, deter gents, dis ...

The target in series [1] is T1, MMP-8 (Homo sapiens, UniProt P22894).
T1 construct: purchased EMD Millipore Corporation (Billerica, MA)
Description: MMP-8 cleavage of soluble PCL conjugates (HPLC decrease of main peak). In kind it is biochemical. Particulars: 900 ng/mL MMP-8, after 360 min; 0.5 mg/mL substrate, MMP-8 buffer pH 6.8-7.0, 37 °C under agitation; HPLC; mean, n = 8. As to the method:
Pro-MMPs (e.g., MMP-8, MMP-1, or MMP-9; used at 0.1 mg/mL and >100.0 mU/mg based on the manufacturer’s information) were activated with p-aminophenylmercuric acetate (APMA) (8). For that, a 10 mM stock solution of APMA was freshly prepared in 0.1 M NaOH and a 10:1 (v/v) ratio of the respective proenzyme and the APMA solution (MMP:APMA) was incubated for 3 h at 37 °C. The activity was confirmed using the MMP-8 detection kit (QuickZyme Biosciences, Leiden, the Netherlands). A stock solution (90 µg/mL) of the activated MMP was prepared (used for cleavage studies on the PCL or the fully assembled microparticle-PCL-tastant setup (sensor), in MMP-8 buffer (200 mM NaCl, 50 mM Tris-HCl, 5 mM CaCl2, 1 µM ZnCl2, 0.05% Brij 35 at pH 6.8–7.0). All MMP experiments are described in detail in the Supplementary Methods. […]
in water ( v/v)) and eluent B (0.1 % TFA in 2:3 water-acetonitrile (v/v)) and a gradient from 33 to 80% elu ent B within 30 minutes. UV absorption was r ead at λ = 280 nm or 220 nm. After freezing the samples at -80 °C, fr eeze- drying was performed on a Christ Alpha 1 -4 de vi ce (Martin Christ Gefriertrocknungs anlagen, Osterode am Harz, G e r ma n y) at a desublimers ’ te mperature of - 60 ° C, pressure of 1.030 mbar and processing temperature of 19 °C.
Pro-MMPs (e. g. MMP -8, MMP -1 or MMP-9; adapted to 0.1 mg/mL and > 100.0 mU/mg based on manufacturer information and when appropriate) were activated with APMA 8. For that, a 10 mM stock solution of APMA in 0.1 M NaOH was freshly prepared and a 10:1 (v/v) ratio of the r especti ve proenzyme and APMA solution (MMP:APMA) was incubated for 3 h at 37 °C. The activity was conf ir med using the MMP-8 detection kit (Q uic kZ ym e® Biosciences, Leiden, Netherlands). A stock solution (90 µg/mL) of the activated MMP was prepared (used for cleavage studies on the pr ot eas e-cleavable linker (PCL; e.g. Figure 2) or the fully assemb led microparticle -PCL- t ast ant setup (sensor; e.g. Figure 3) , in MMP -8 buffer (200 mM NaCl, 50 mM Tris-H Cl, 5 mM C aC l2, 1 µM ZnCl2, 0.05 % Brij35 at pH 6.8- 7.0). A ll MMP -8 exp eriments wer e performed as follo ws. 25 µg of the sensor ( see chap ter : Peptide-coupling to beads (Sensor)) in 100 µL MMP-buffer or 1 mg of FP LC -purified and lyophilized PCL as described dissolved 2 mL M MP -buffer resulting in a final concentration of 0.5 mg/ mL substrate was used. […]
Figure 2A , 3, 4B ). […]
(sensor) in co mpar ison to negative controls (the negative controls for the PCL an d sensor exper i men ts were b y incubation without MMP under otherwise identical conditions). The relative d ecreas e of the PCL’s ma in peak was char act er ized by HPLC (PCL) or of the sensor’s fluorescence b y FACS (sensor) in comparison to control. […]

Series [2] relates to MMP-1, MMP-8, MMP-9, MMP-13. Description: MMP selectivity of the soluble PCL carboxyfluorescein conjugate. It is filed as biochemical, human. The note with it: MMPs at 900 ng/mL, 60 min, 37 °C; HPLC. The method, then:
Pro-MMPs (e.g., MMP-8, MMP-1, or MMP-9; used at 0.1 mg/mL and >100.0 mU/mg based on the manufacturer’s information) were activated with p-aminophenylmercuric acetate (APMA) (8). For that, a 10 mM stock solution of APMA was freshly prepared in 0.1 M NaOH and a 10:1 (v/v) ratio of the respective proenzyme and the APMA solution (MMP:APMA) was incubated for 3 h at 37 °C. The activity was confirmed using the MMP-8 detection kit (QuickZyme Biosciences, Leiden, the Netherlands). […]
Enzymatic reactions were stopped using 4 µL 250 mM ED TA in case of the sensor or heating in cas e of uncoupled PCL (95 °C for 15 minutes; the beads of the sensor would melt at h eatin g due to a different method used). Cleavage was analyzed by […] an al ysis (PCL) or by flow c yto metr y (sensor) in co mpar ison to negative controls (the negative controls for the PCL an d sensor exper i men ts were b y incubation without MMP under otherwise identical conditions). The relative d ecreas e of the PCL’s ma in peak was char act er ized by HPLC (PCL) or of the sensor’s fluorescence b y FACS (sensor) in comparison to control. […]

The subject of series [3] is MMP-8. Description: MMP-8 in MMP-8 buffer. Particulars: human, 37 °C, up to 22 h.
Series [4] has as its system Leucine aminopeptidase (AP). Kind of series: AP-incubated peptide (without MMP-8). The note with it: porcine kidney.
In series [5] the test system is MMP-8. Description: MMP-8 buffer (200 mM NaCl, 50 mM Tris-HCl, 5 mM CaCl2, 1 µM ZnCl2, 0.05% Brij 35 at pH 6.8–7.0). The note with it: human, 37 °C, up to 6 hours.
Series [6] has as its system Leucine aminopeptidase from porcine kidney. Description: AP buffer (50 mM Tris-HCl, 1 mM CaCl2 and 150 mM NaCl at pH 7.0). Particulars: 37 °C, up to 20 h.
For series [7], the system named is Leucine aminopeptidase (AP). Kind of series: AP buffer (50 mM Tris-HCl, 1 mM CaCl2, and 150 mM NaCl at pH 7.0). Particulars: porcine kidney, 37 °C, up to 20 h.

The source of these data is article PMC5557808 (Nature Communications, 2017).

T1 sequence (P22894 101-467): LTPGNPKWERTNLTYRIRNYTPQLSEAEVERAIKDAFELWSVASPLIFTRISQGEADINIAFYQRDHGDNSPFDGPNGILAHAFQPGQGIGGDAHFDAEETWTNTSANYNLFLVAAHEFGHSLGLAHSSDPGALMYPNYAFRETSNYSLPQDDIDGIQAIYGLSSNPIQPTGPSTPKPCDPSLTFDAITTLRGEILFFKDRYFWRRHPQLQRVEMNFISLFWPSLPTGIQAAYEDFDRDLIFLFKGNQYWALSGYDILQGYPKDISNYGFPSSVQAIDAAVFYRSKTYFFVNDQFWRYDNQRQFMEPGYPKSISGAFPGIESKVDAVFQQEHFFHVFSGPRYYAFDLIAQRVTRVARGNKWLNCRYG

As for `CC[N+](CC)(CC(=O)Nc1c(C)cccc1C)Cc1ccccc1.[Cl-]` [Denatonium chloride], the “concentration at which the bitter taste can be detected” value in the series on human tongue (ref 2 (Supplementary References)) was 10 ppb.

As to `CC[N+](CC)(CC(=O)Nc1c(C)cccc1C)Cc1ccccc1` [Denatonium, Denatonium benzoate], in the series on human tongue, the “concentration down to which the human tongue senses bitterness” value is given as 10 nM.

In the case of “Cf-GP QGIA GQ-A( N3)-Q [ID #1b, PCL carboxyfluorescein conjugate]”, the “Cleavage (%) of the PCL over incubation time, plateau” value on MMP-8 [1] is on record as more than 50%. Besides, in series [2], the “MMP sensitivity rank order of the soluble PCL conjugate” value is “MMP-8 = MMP-9 > MMP-13 > MMP-1”.

For De-GPQGIAGQ-A( N3)-Q, the cleaved bond result in the series on MMP-8 [3] and in the series with MMP-8 [5] was “G-I” throughout. Moreover, the not cleaved entry in series [4] was “one HPLC-peak at 7.178 min with a mass of 1331.9 Da, as negative control”.

With De-GPQGIAGQ-A(N3)-Q, in series [6], the not cleaved entry is “one HPLC peak, mass 1331.9 Da after AP incubation”.

I AGQ-K-De: the fragment found entry in series [7] is “denatonium coupled to lysine”.
